Data set [1] can be described thus: Anti-cancer activity, ACHN. Type of data set: cell-based, human. The conditions noted are these: human, ACHN cells (kidney cancer cells), read-out: LC50. As to the method:
(§1) Anti-cancer activity was evaluated using a method complying with an anti-cancer agent screening method (1990) using a human cancer cell panel which has been carried out by U.S. National Cancer Institute (NCI). Cells employed in experiments were from the following three cell lines: HL60 cell (cell line derived from human leukemia); HeLa cell (cell line derived from human uterine cancer); and HCT116 cell (cell line derived from human large intestine cancer). Media suitable for use of these cells are RPMI-1640 medium containing 10% FCS; a MEM medium containing 10% CS; and McCoy5A medium containing 10% FCS, respectively.
(§2) Cells suspended in themedium wereplated into 96-well plates at a concentration of 1×10^5 cells/cm^2, followed by incubation overnight. Peptide solutions containing various concentrations of the peptide of the present invention were added to the plates, followed by incubation at 37° C. for 2 days in a CO2 incubator. During culturing, the growth of the cells was measured by colorimetry using sulforhodamine B and the peptide concentration was categorized into any of GI50 which is the concentration at which the growth is inhibited by 50% as compared to the control; TGI which is the concentration at which the number of cells is seemingly not increased or decreased from the time of addition of the peptide of the present invention, i.e., the growth is suppressed to the same number of cells as when the peptide was added: and LC50 which is the concentration at which the number of cells is decreased to 50% of that at the time of addition of the peptide.
(§3) Thereafter, various cancer cells were employed to confirm the anti-cancer activity of mast21R. Each cancer cell was cultured in RPMI-1640 medium containing 10% FCS.

Data set [2] in a line: Anti-cancer activity, HCT-15. The format is cell-based, human. The conditions noted are these: human, HCT-15 cells (large intestine cancer cells); HCT-15, large intestine cancer; read-out: LC50. How it is done:
as §1, §2, §3

A short description of data set [3]: Anti-cancer activity, A549. Type of data set: cell-based, human. As to conditions: human; A549, lung cancer; read-out: LC50. How it is done: as §1, §2, §3
Data set [4] in a line: Anti-cancer activity, 5637 cell. As to conditions: human, bladder cancer, read-out: LC50. Type of data set: cell-based, human. How it is done: as §1, §2, §3
Data set [5] in a line: Anti-cancer activity, SR-BR-3. As to conditions: human, SR-BR-3 cells (breast cancer cells); SR-BR-3, breast cancer; read-out: LC50. Type of data set: cell-based, human. How it is done:
as §1, §2, §3

Data set [6] is described as follows: Anti-cancer activity, SH-10-TC. The format is cell-based, human. As to conditions: human, SH-10-TC cells (stomach cancer cells). How it is done: as §1, §2, §3
A short description of data set [7]: Anti-cancer activity, NIH OVCAR-3. The format is cell-based, human. The conditions noted are these: human, NIH OVCAR-3 cells (ovarian cancer cells); NIH OVCAR-3, ovarian cancer; read-out: LC50. How it is done: as §1, §2, §3
Data set [8] is described as follows: Anti-cancer activity, KATO III cell. The format is cell-based, human. As to conditions: human, KATO III cells (stomach cancer cells), read-out: LC50. How it is done: as §1, §2, §3
Data set [9] can be described thus: Anti-cancer activity, A172. Type of data set: cell-based, human. The conditions noted are these: human; A172, glioblastoma; read-out: LC50. How it is done:
as §1, §2, §3

Data set [10] is described as follows: Anti-cancer activity, D98-AH2. The format is cell-based, human. The conditions noted are these: human, D98-AH2 cells (uterine cancer cells), read-out: LC50. As to the method: as §1, §2, §3
In data set [11] the test system is Erwinia carotovora (NBRC3380). In words: Antibacterial activity against plant pathogenic bacteria. Type of data set: cell-based. As to conditions: 30° C., 16 to 24 h. As to the method: Mast21, mast21R, ALR6, and KVL6 were evaluated with respect to antibacterial activity against Erwinia carotovora (NBRC3380) which is a plant pathogenic bacterium causing soft rot. Specifically, a minimum concentration of a peptide capable of inhibiting the growth of bacteria was determined using microtiter plates. Bacteria were cultured for 16 h in culture medium (Difco Nutrient Broth 8 g, NaCl 5 g/L, pH 7.0), followed by measurement of absorbance at A600. Each bacterial strain was diluted into a final concentration of 1×10^6 CFU/ml. For each peptide, 5 mM aqueous solution was prepared, and thereafter, was subjected to serial dilution. The peptide serial dilutions (50 μl for each) were added to respective wells of the microplate to which 50 μl of the bacterial solution had been added (final cell concentration: 5×10^5 CFU/ml, final peptide concentration: 0 to 50 μM). […] The unit of concentration described in Table 9 is μM.

A short description of data set [12]: Anti-cancer activity, LK-2. Type of data set: cell-based, human. The conditions noted are these: human, LK-2 cells (lung cancer cells); LK-2, lung cancer; read-out: LC50. How it is done:
as §1, §2, §3

Data set [13] can be described thus: Anti-cancer activity, PC-3. Type of data set: cell-based, human. As to conditions: human, PC-3 cells (prostate cancer cells); PC-3, prostate cancer; read-out: LC50. As to the method:
as §1, §2, §3

Data set [14] is described as follows: Anti-cancer activity, DU-145. Type of data set: cell-based, human. The conditions noted are these: human; DU-145, prostate cancer; read-out: LC50. How it is done: as §1, §2, §3
The nature of data set [15]: Anti-cancer activity, MCF7. The format is cell-based, human. As to conditions: human, MCF7 cells (breast cancer cells). How it is done: as §1, §2, §3
A short description of data set [16]: Anti-cancer activity, EJ-1 cell. Type of data set: cell-based, human. The conditions noted are these: human, EJ-1 cells (bladder cancer cells), read-out: LC50. How it is done:
as §1, §2, §3

Data set [17] is described as follows: Anti-cancer activity, colo205. Type of data set: cell-based, human. As to conditions: human; colo205, large intestine cancer; read-out: LC50. How it is done: as §1, §2, §3
Data set [18] is described as follows: Anti-cancer activity, EBC-1. The format is cell-based, human. The conditions noted are these: human, EBC-1 cells (lung cancer cells); EBC-1, lung cancer; read-out: LC50. How it is done:
as §1, §2, §3

“And” between values parts separate entries of the source, which are not always exact repeats. Equal values may be shown once. Where no end group is shown, it is not given here. Bounds are passed on as bounds.

As to “ALRALRALRALRALRALR [ALR6, ALRALRALRALRALRALR]”, the CC50 at 2 days in data set [1] is over 100 µM; in data set [2] it was over 100 µM; in [3], over 100 µM; in data set [4], over 100 µM; in data set [5], 100 µM; in [7] it was over 100 µM. The CC50 at 2 days in data set [8], in data set [9], in [10], in data set [12], in data set [13] and in [14] was over 100 µM each time. Besides, the CC50 at 2 days in [16], in data set [17] and in data set [18] was over 100 µM each time. Further, the results for the LC50 at 2 days in data set [6] and in data set [15] were over 100 µM and 80 µM, respectively. Besides, the MIC (commonly the lowest concentration that inhibits growth of the organism) in [11] is 3.1 μM and 3.2 μg/ml.

Turning to “KVLKVLKVLKVLKVLKVL [KVL6, KVLKVLKVLKVLKVLKVL]”, the CC50 at 2 days was 80 µM in data set [1]; 80 µM in data set [2]; 70 µM in data set [3]; 100 µM in data set [4]; 100 µM in data set [5]; over 100 µM in [7]. For the same sequence, the CC50 at 2 days is 100 µM in data set [8]; over 100 µM in data set [9]; over 100 µM in [10]; over 100 µM in [12]; over 100 µM in [13]; over 100 µM in data set [14]. The CC50 at 2 days was 90 µM in data set [16], 100 µM in [17] and over 100 µM in [18]. Also, the LC50 – broadly, the concentration that kills 50% of the test population – at 2 days in [6] is 60 µM; in [15], 100 µM. Further, in data set [11], the minimum inhibitory concentration (MIC) is 3.1 μM and 3.2 μg/ml.

For the origin of these results see patent publication US20040072992A1, “Novel peptide capable of specifically acting on biological membrane” (priority 2002, published 2004).
